Results reported in patent US20240041898A9, “NEUROSTEROIDS AND ENANTIOMERS THEREOF FOR THE PREVENTION AND TREATMENT OF NEURODEGENERATIVE CONDITIONS” (priority 2019, published 2024).
“And” between values parts separate entries of the source, which are not always exact repeats. Equal values may be shown once.

Key:
TUNEL-positive RGCs = experiment: Ex vivo pressure-loaded retinas, TUNEL staining (apoptosis); type: cell-based, rat; settings: 75 mmHg, 1 μM, single values
Procedure: Rat ex vivo Eyecup Preparation—Rat ex vivo eyecups were prepared from 28-32 day old male Sprague-Dawley rats (Charles River Laboratories International Inc., Wilmington, MA). The anterior half of the enucleated eyes was carefully removed to make eyecup preparations. Eyecups were placed at the bottom of a 100 ml glass beaker filled with aCSF (artificial cerebrospinal fluid) containing (in mM): 124 NaCl, 5 KCl, 2 MgSO4, 2 CaCl2, 1.25 NaH2PO4, 22 NaHCO3, and 10 glucose, and incubated at 30° C. for 24 hours using a closed pressure-loading system (FIG. 1C). pH was maintained at 7.35 to 7.40. […]
Acutely prepared eyecups were incubated in gassed aCSF for at least 1 h at 30° C. before pressure loading. […] For pressure loading, the 95% O2-5% CO2 gas mixture was infused until the pressure reading given by a manometer reached the appropriate level. The pressure was then locked by adjusting the control dial of the effusion valve, and monitored continuously for 24 h at 30° C.
Apoptosis—To visualize apoptotic cells, a DeadEnd™ Colorimetric TUNEL (TdT-mediated dUTP Nick-End Labeling) System (Promega, Madison, WI) was used according to the manufacturer's instructions. […] After the length of each retinal section was measured (Image-Pro Plus software), the cells were counted in the whole section length and the number of cells was normalized per 200 μm of retinal section. […]

optic nerve axons = experiment: Rat in vivo OHT model, density of optic nerve axons; settings: OHT eyes, intravitreal, 3 weeks after microbead injection; single values
Procedure: Example 7. Rat in vivo OHT model induced by intracameral injection of microbeads—For induction of ocular hypertension (OHT) in vivo, sterile 6 μm polystyrene microbeads were injected into the anterior chamber of the left eye of each animal using a single-step, sclero-corneal tunnel approach with a 35G nanoneedle (FIG. 4A). […] After stabilization of elevated IOP, animals were randomly divided into 3 groups (non-treated OHT, AlloP injection, and ent-AlloP injection). AlloP and ent-AlloP were administered as a one-time intravitreal injection one week following bead injection. Non-treated OHT animals received sterile vehicle intravitreally. As a further control, vehicle was intravitreally injected 7 days after intracameral administration of 10 μl of PBS. Three weeks after bead injections, IOP was 26.7±3.7 mmHg in non-treated OHT eyes compared to 9.9±0.9 mmHg in control eyes.
Example 9. RGC survival by neurosteroids during IOP elevation—In whole mounted retinas, glaucomatous damage was visible as reduced numbers of cells that were positive for NeuN three weeks after microbead injection in non-treated OHT eyes compared with control eyes (FIG. 4J, 4K). […] In sections of optic nerves stained with 2% toluidine blue, axonal loss was detected 3 weeks after microbead injection in non-treated OHT eyes compared with control eyes (FIG. 4O, 4p). […]

## CC(=O)[C@H]1CC[C@H]2[C@@H]3CC[C@H]4C[C@H](O)CC[C@]4(C)[C@H]3CC[C@]12C [AlloP, allopregnanolone]
TUNEL-positive RGCs
  TUNEL Staining (number of TUNEL-positive RGCs), individual areas 1-5: 7 per 200 μm of retina section and 0 per 200 μm of retina section (3×) and 2 per 200 μm of retina section
Optic nerve axons
  Density of axons in ONs, individual 1-5: 33 Axons × 10000/square mm (2×) and 27 Axons × 10000/square mm and 32 Axons × 10000/square mm and 29 Axons × 10000/square mm

## CC(=O)[C@@H]1CC[C@@H]2[C@H]3CC[C@@H]4C[C@@H](O)CC[C@@]4(C)[C@@H]3CC[C@]21C [ent-AlloP, ent-allopregnanolone]
TUNEL-positive RGCs
  TUNEL Staining (number of TUNEL-positive RGCs), individual areas 1-5: 10 per 200 μm of retina section and 1 per 200 μm of retina section and 0 per 200 μm of retina section (2×) and 2 per 200 μm of retina section
Optic nerve axons
  Density of axons in ONs, individual 1-5: 31 Axons × 10000/square mm and 33 Axons × 10000/square mm and 32 Axons × 10000/square mm and 29 Axons × 10000/square mm and 27 Axons × 10000/square mm
